# Measured values from US9828412B2, “Short peptide targeting EPS8 binding with EGFR and use thereof” (SOUTHERN MEDICAL UNIVERSITY, priority 2014, dated 2017).
# Read-outs that look alike come from different tables or passages of the source. No end group written: not given here.
# Columns and labels:
# [1] = tested on: EPS8 overexpression tumor cell line MCF-7 (human breast cancer cell line)
# Protocol: EPS8 overexpression tumor cell line MCF-7 (human breast cancer cell line, purchased from ATCC) were selected as target cells, and seeded in 96-well plates at 10,000 cells/well and 100 μL/well. The medium culture was Dulbecco's Modified Eagle's Medium (DMEM) containing 10% FBS. 8 hours later, short peptide P01 was added at different final concentration of 0, 100, 300 and 500 μg/mL. MCF-7 cells were incubated with short peptide P01 for 24 hours, 48 hours and 72 hours. Then OD values at wavelength of 490 nm were detected by MTS assay, and MCF-7 cell viability was calculated.
# MCF-7 cell viability=[(ODexperimental-ODblank control)]/[(ODnegative control-ODblank control)]×100%.
# [2] = tested on: EPS8 overexpression tumor cell line KG1α (human acute myeloid leukemia cell line)
# Protocol: EPS8 overexpression tumor cell line KG1α (human acute myeloid leukemia cell line, purchased from the American Type Culture Collection, ATCC) were selected as target cells, and seeded in 96-well plates at 10,000 cells/well and 100 μL/well. The medium culture was Roswell Park Memorial Institute (RPMI)-1640 containing 10% fetal bovine serum (FBS). […] Then OD values at the wavelength of 490 nm were detected by MTS assay, and KG1α cell viability was calculated.
# KG1α cell viability=[(ODexperimental-ODblank control)]/[(ODnegative control-ODblank control)]×100%.
substance,measurement,setting,value
"RKKNKPPPPKK-NH2 [P01, N′-Arg-Lys-Lys-Asn-Lys-Pro-Pro-Pro-Pro-Lys-Lys-NH2-C′]",IC50 (MCF-7 cell viability),[1]; 24 h,594.2 µg/mL
same,IC50 (MCF-7 cell viability),[1]; 48 h,374.9 µg/mL
same,IC50 (MCF-7 cell viability),[1]; 72 h,304.7 µg/mL
same,IC50 (KG1α cell viability),[2]; 24 h,888.5 µg/mL
same,IC50 (KG1α cell viability),[2]; 48 h,413.9 µg/mL
same,IC50 (KG1α cell viability),[2]; 72 h,335.6 µg/mL
